Test results published in patent US10189841B2, “Purinones as ubiquitin-specific protease 1 inhibitors” (Forma Therapeutics, Inc., priority 2015, dated 2019).

Biological target: USP1 (construct USP1 (I-785, GG670, 671AA)/UAF1 (I-677)-Flag) (Homo sapiens (Human), UniProt O94782, G670A/G671A)
Assay: Ubiquitin-Rhodamine 110 assay for USP1 activity
Assay type: biochemical
Conditions: USP1/UAF1 25 pM, Ub-Rh110 25 nM, 30 min preincubation
Method in brief: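 Ub-Rh110 (25 nM, ≪Km) cleavage read at ex 485/em 535 in Tris pH 8.0, CaCl2, GSH, Prionex, Triton X-100. The screen used 10 µM compound, 100 pM USP1/UAF1 and 45 min at RT.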

Sequence of USP1 (construct USP1 (I-785, GG670, 671AA)/UAF1 (I-677)-Flag) (O94782 whole entry G670A/G671A): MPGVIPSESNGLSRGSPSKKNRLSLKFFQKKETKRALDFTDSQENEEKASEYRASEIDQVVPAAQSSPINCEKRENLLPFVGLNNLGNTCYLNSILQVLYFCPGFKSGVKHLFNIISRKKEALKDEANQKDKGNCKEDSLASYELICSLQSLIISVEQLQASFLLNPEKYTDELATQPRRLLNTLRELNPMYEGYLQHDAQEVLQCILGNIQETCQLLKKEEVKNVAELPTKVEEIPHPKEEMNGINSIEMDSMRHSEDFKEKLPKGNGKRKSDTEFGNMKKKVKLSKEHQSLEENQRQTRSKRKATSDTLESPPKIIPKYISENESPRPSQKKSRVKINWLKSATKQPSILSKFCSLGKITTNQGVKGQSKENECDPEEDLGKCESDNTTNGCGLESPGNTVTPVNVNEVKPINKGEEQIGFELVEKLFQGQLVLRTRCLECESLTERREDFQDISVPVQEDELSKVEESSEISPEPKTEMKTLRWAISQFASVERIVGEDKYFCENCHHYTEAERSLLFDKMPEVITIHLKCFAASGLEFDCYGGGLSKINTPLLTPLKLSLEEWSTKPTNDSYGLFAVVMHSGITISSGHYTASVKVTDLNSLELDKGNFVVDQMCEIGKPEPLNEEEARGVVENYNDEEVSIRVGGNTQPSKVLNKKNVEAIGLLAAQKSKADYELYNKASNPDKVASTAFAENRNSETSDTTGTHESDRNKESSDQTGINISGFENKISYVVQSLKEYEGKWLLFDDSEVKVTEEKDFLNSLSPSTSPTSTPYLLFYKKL
Sequence of USP1 (construct USP1 (I-785, GG670, 671AA)/UAF1 (I-677)-Flag) (Q8TAF3 whole entry partner): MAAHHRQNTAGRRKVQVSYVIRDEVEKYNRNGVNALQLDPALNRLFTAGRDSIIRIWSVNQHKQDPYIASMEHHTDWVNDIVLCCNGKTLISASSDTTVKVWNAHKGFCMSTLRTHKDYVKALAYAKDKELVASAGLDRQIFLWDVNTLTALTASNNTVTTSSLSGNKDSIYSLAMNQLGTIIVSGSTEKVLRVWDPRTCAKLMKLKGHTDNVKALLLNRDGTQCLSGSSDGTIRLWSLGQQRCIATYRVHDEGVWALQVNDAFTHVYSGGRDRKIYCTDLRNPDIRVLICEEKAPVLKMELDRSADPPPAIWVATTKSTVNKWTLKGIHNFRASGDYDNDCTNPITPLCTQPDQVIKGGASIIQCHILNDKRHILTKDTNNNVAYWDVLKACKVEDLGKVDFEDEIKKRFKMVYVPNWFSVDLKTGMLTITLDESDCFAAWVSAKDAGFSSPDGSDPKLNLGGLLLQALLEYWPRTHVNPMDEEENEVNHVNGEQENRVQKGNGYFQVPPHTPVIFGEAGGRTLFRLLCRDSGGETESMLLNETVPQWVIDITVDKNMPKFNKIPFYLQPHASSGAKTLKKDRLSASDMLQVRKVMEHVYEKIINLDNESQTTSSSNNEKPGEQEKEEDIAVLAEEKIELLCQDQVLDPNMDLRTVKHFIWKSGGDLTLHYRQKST

Compound | IC50 [µM]
CC(C)c1ccccc1-c1ncc2[nH]c(=O)n(Cc3ccc(C4OCC4(C)C)cc3)c2n1 (centres unmarked) [Compound I-216, 9-(4-(3,3-dimethyloxetan-2-yl)benzyl)-2-(2-isopropylphenyl)-7,9-dihydro-8H-purin-8-one] | 0.05 to 0.2
CC(=O)Nc1cccc(Cn2c(=O)[nH]c3cnc(-c4ccccc4C(C)C)nc32)c1 [Compound I-217, N-(3-((2-(2-isopropylphenyl)-8-oxo-7,8-dihydro-9H-purin-9-yl)methyl)phenyl)acetamide] | 0.2 to 2
CC(=O)Nc1ccc(Cn2c(=O)[nH]c3cnc(-c4ccccc4C(C)C)nc32)cc1 [Compound I-218, N-(4-((2-(2-isopropylphenyl)-8-oxo-7,8-dihydro-9H-purin-9-yl)methyl)phenyl)acetamide] | 0.2 to 2
CC(C)c1ccccc1-c1ncc2[nH]c(=O)n(Cc3ccc(-c4ncc(C(F)(F)F)n4C)cc3)c2n1 [Compound I-219, 2-(2-isopropylphenyl)-9-(4-(1-methyl-5-(trifluoromethyl)-1H-imidazol-2-yl)benzyl)-7,9-dihydro-8H-purin-8-one] | < 0.05
CC(C)c1ccccc1-c1ncc2[nH]c(=O)n(CC3(F)CCN(C(=O)OC(C)(C)C)CC3)c2n1 [Compound I-220, tert-butyl 4-fluoro-4-((2-(2-isopropylphenyl)-8-oxo-7,8-dihydro-9H-purin-9-yl)methyl)piperidine-1-carboxylate] | 0.05 to 0.2
CC(C)c1ccccc1-c1ncc2[nH]c(=O)n(Cc3ccc(-n4cc(C5CCNCC5)cn4)cc3)c2n1 [Compound I-221, 2-(2-isopropylphenyl)-9-(4-(4-(piperidin-4-yl)-1H-pyrazol-1-yl)benzyl)-7,9-dihydro-8H-purin-8-one] | 0.2 to 2
CC(C)c1ccccc1-c1ncc2[nH]c(=O)n(Cc3ccc(-n4ccc(C5CCNC5)n4)cc3)c2n1 (centres unmarked) [Compound I-222, 2-(2-isopropylphenyl)-9-(4-(3-(pyrrolidin-3-yl)-1H-pyrazol-1-yl)benzyl)-7,9-dihydro-8H-purin-8-one] | 0.2 to 2
CC(C)c1ccccc1-c1ncc2[nH]c(=O)n(Cc3ccc(-n4ccc(C5CCCNC5)n4)cc3)c2n1 (centres unmarked) [Compound I-223, 2-(2-isopropylphenyl)-9-(4-(3-(piperidin-3-yl)-1H-pyrazol-1-yl)benzyl)-7,9-dihydro-8H-purin-8-one] | 0.05 to 0.2
CC(C)c1ccccc1-c1ncc2[nH]c(=O)n(Cc3ccc(-n4ccc([C@@H]5CCCNC5)n4)cc3)c2n1 [Compound I-224, (R)-2-(2-isopropylphenyl)-9-(4-(3-(piperidin-3-yl)-1H-pyrazol-1-yl)benzyl)-7,9-dihydro-8H-purin-8-one] | 0.05 to 0.2
CC(C)c1ccccc1-c1ncc2[nH]c(=O)n(C3(c4ccc(-n5cccn5)cc4)CC3)c2n1 [Compound I-226, 9-(1-(4-(1H-pyrazol-1-yl)phenyl)cyclopropyl)-2-(2-isopropylphenyl)-7,9-dihydro-8H-purin-8-one] | < 0.05
CC(C)c1ccccc1-c1ncc2[nH]c(=O)n(C3(c4ccc(F)cc4)CC3)c2n1 [Compound I-227, 9-(1-(4-fluorophenyl)cyclopropyl)-2-(2-isopropylphenyl)-7,9-dihydro-8H-purin-8-one] | < 0.05
CC(C)c1ccccc1-c1ncc2c(n1)n(Cc1ccc(OCC3CC3)cc1)c(=O)n2C [Compound I-228, 9-(4-(cyclopropylmethoxy)benzyl)-2-(2-isopropylphenyl)-7-methyl-7,9-dihydro-8H-purin-8-one] | 0.05 to 0.2
CC(C)c1ccccc1-c1ncc2c(n1)n(Cc1ccc(OCC3CCOC3)cc1)c(=O)n2C (centres unmarked) [Compound I-229, 2-(2-isopropylphenyl)-7-methyl-9-(4-((tetrahydrofuran-3-yl)methoxy)benzyl)-7,9-dihydro-8H-purin-8-one] | 0.05 to 0.2
CC(C)c1ccccc1-c1ncc2c(n1)n(Cc1ccc(OCC3CCCN(C)C3)cc1)c(=O)n2C (centres unmarked) [Compound I-230, 2-(2-isopropylphenyl)-7-methyl-9-(4-((1-methylpiperidin-3-yl)methoxy)benzyl)-7,9-dihydro-8H-purin-8-one] | 0.2 to 2
CC(C)c1ccccc1-c1ncc2c(n1)n(Cc1ccc(OCc3ccccn3)cc1)c(=O)n2C [Compound I-231, 2-(2-isopropylphenyl)-7-methyl-9-(4-(pyridin-2-ylmethoxy)benzyl)-7,9-dihydro-8H-purin-8-one] | < 0.05
CC(C)c1ccccc1-c1ncc2c(n1)n(Cc1ccc(OCc3cncn3C)cc1)c(=O)n2C [Compound I-232, 2-(2-isopropylphenyl)-7-methyl-9-(4-((1-methyl-1H-imidazol-5-yl)methoxy)benzyl)-7,9-dihydro-8H-purin-8-one] | 0.2 to 2
CC(C)c1ccccc1-c1ncc2c(n1)n(Cc1ccc(OCCN(C)C)cc1)c(=O)n2C [Compound I-233, 9-(4-(2-(dimethylamino)ethoxy)benzyl)-2-(2-isopropylphenyl)-7-methyl-7,9-dihydro-8H-purin-8-one] | 0.05 to 0.2
CC(C)c1ccccc1-c1ncc2c(n1)n(Cc1ccc(OCCCN(C)C)cc1)c(=O)n2C [Compound I-234, 9-(4-(3-(dimethylamino)propoxy)benzyl)-2-(2-isopropylphenyl)-7-methyl-7,9-dihydro-8H-purin-8-one] | > 2

Compound | IC50 [µM]
Cc1cc(COc2ccc(Cn3c(=O)n(C)c4cnc(-c5ccccc5C(C)C)nc43)cc2)no1 [Compound I-235, 2-(2-isopropylphenyl)-7-methyl-9-(4-((5-methylisoxazol-3-yl)methoxy)benzyl)-7,9-dihydro-8H-purin-8-one] | 0.2 to 2
CCOCCOc1ccc(Cn2c(=O)n(C)c3cnc(-c4ccccc4C(C)C)nc32)cc1 [Compound I-236, 9-(4-(2-ethoxyethoxy)benzyl)-2-(2-isopropylphenyl)-7-methyl-7,9-dihydro-8H-purin-8-one] | < 0.05
CC(C)c1ccccc1-c1ncc2c(n1)n(Cc1ccc(OC3CCC3)cc1)c(=O)n2C [Compound I-237, 9-(4-cyclobutoxybenzyl)-2-(2-isopropylphenyl)-7-methyl-7,9-dihydro-8H-purin-8-one] | 0.05 to 0.2
CC(C)c1ccccc1-c1ncc2c(n1)n(Cc1ccc(OC3CCOCC3)cc1)c(=O)n2C [Compound I-238, 2-(2-isopropylphenyl)-7-methyl-9-(4-((tetrahydro-2H-pyran-4-yl)oxy)benzyl)-7,9-dihydro-8H-purin-8-one] | 0.2 to 2
CC(C)c1ccccc1-c1ncc2c(n1)n(Cc1cccc(OCC3CC3)c1)c(=O)n2C [Compound I-239, 9-(3-(cyclopropylmethoxy)benzyl)-2-(2-isopropylphenyl)-7-methyl-7,9-dihydro-8H-purin-8-one] | > 2
CC(C)c1ccccc1-c1ncc2c(n1)n(Cc1cccc(OCC3CCOC3)c1)c(=O)n2C (centres unmarked) [Compound I-240, 2-(2-isopropylphenyl)-7-methyl-9-(3-((tetrahydrofuran-3-yl)methoxy)benzyl)-7,9-dihydro-8H-purin-8-one] | 0.2 to 2
CC(C)c1ccccc1-c1ncc2c(n1)n(Cc1cccc(OCC3CCCN(C)C3)c1)c(=O)n2C (centres unmarked) [Compound I-241, 2-(2-isopropylphenyl)-7-methyl-9-(3-((1-methylpiperidin-3-yl)methoxy)benzyl)-7,9-dihydro-8H-purin-8-one] | 0.2 to 2
CC(C)c1ccccc1-c1ncc2c(n1)n(Cc1cccc(OCc3ccccn3)c1)c(=O)n2C [Compound I-242, 2-(2-isopropylphenyl)-7-methyl-9-(3-(pyridin-2-ylmethoxy)benzyl)-7,9-dihydro-8H-purin-8-one] | > 2
CC(C)c1ccccc1-c1ncc2c(n1)n(Cc1cccc(OCc3cncn3C)c1)c(=O)n2C [Compound I-243, 2-(2-isopropylphenyl)-7-methyl-9-(3-((1-methyl-1H-imidazol-5-yl)methoxy)benzyl)-7,9-dihydro-8H-purin-8-one] | 0.2 to 2
CC(C)c1ccccc1-c1ncc2c(n1)n(Cc1cccc(OCCN(C)C)c1)c(=O)n2C [Compound I-244, 9-(3-(2-(dimethylamino)ethoxy)benzyl)-2-(2-isopropylphenyl)-7-methyl-7,9-dihydro-8H-purin-8-one] | > 2
CC(C)c1ccccc1-c1ncc2c(n1)n(Cc1cccc(OCCCN(C)C)c1)c(=O)n2C [Compound I-245, 9-(3-(3-(dimethylamino)propoxy)benzyl)-2-(2-isopropylphenyl)-7-methyl-7,9-dihydro-8H-purin-8-one] | > 2
CC(C)c1ccccc1-c1ncc2c(n1)n(Cc1cccc(OC3CCC3)c1)c(=O)n2C [Compound I-246, 9-(3-cyclobutoxybenzyl)-2-(2-isopropylphenyl)-7-methyl-7,9-dihydro-8H-purin-8-one] | > 2
CC(C)c1ccccc1-c1ncc2[nH]c(=O)n(Cc3ccc(-c4cnccn4)cc3)c2n1 [Compound I-247, 2-(2-isopropylphenyl)-9-(4-(pyrazin-2-yl)benzyl)-7,9-dihydro-8H-purin-8-one] | 0.05 to 0.2
CC(C)c1ccccc1-c1ncc2[nH]c(=O)n(Cc3ccc(-c4cccc(CCN(C)C)c4)cc3)c2n1 [Compound I-248, 9-((3′-(2-(dimethylamino)ethyl)-[1,1′-biphenyl]-4-yl)methyl)-2-(2-isopropylphenyl)-7,9-dihydro-8H-purin-8-one] | 0.2 to 2
CC(C)c1ccccc1-c1ncc2[nH]c(=O)n(Cc3ccc(-c4ccc(CCN(C)C)cc4)cc3)c2n1 [Compound I-249, 9-((4′-(2-(dimethylamino)ethyl)-[1,1′-biphenyl]-4-yl)methyl)-2-(2-isopropylphenyl)-7,9-dihydro-8H-purin-8-one] | 0.2 to 2
CC(C)c1ccccc1-c1ncc2[nH]c(=O)n(Cc3ccc(-c4cc(N5CCOCC5)ncn4)cc3)c2n1 [Compound I-250, 2-(2-isopropylphenyl)-9-(4-(6-morpholinopyrimidin-4-yl)benzyl)-7,9-dihydro-8H-purin-8-one] | 0.05 to 0.2
CC(C)c1ccccc1-c1ncc2[nH]c(=O)n(Cc3ccc(-c4cncn4C)cc3)c2n1 [Compound I-251, 2-(2-isopropylphenyl)-9-(4-(1-methyl-1H-imidazol-5-yl)benzyl)-7,9-dihydro-8H-purin-8-one] | 0.2 to 2
